Active and inactive are the calls of the source. The rule behind the calls is not given here.
Assays:
[1] = system: A549; experiment: Inhibition of Nuclear factor erythroid 2-related factor 2 5'-untranslated region guanine-rich DNA sequence in human A549 cells assessed as suppression of GCLC gene expression at 10 nM measured up to 48 hrs by RT-PCR analysis; format: cell-based
[2] = system: A549; experiment: Inhibition of Nrf2 5'-untranslated region guanine-rich DNA sequence in human A549 cells assessed as potentiation of etoposide-induced apoptosis by measuring increase cleaved caspase-3 protein level in at 10 nM after 24 hrs by Western blot analysis; format: cell-based
[3] = Stabilization of ssGQPLEX-G/T-2,4 DNA (unknown origin) by circular dichroism method
[4] = Stabilization of ssGQPLEX-G/T-1,3 DNA (unknown origin) by circular dichroism method
[5] = system: A549; experiment: Inhibition of Nrf2 5'-untranslated region guanine-rich DNA sequence in human A549 cells assessed as potentiation of etoposide-induced cytotoxicity by measuring increase in ROS production at 10 nM after 24 hrs by DCFH-DA based assay; format: cell-based
[6] = Stabilization of ssGQPLEX-delta3,4 DNA lacking third and fourth G blocks (unknown origin) by circular dichroism method
[7] = system: A549; experiment: Inhibition of Nuclear factor erythroid 2-related factor 2 5'-untranslated region guanine-rich DNA sequence in human A549 cells assessed as reduction in Nrf2 protein level at 10 nM incubated for 12 to […] hrs by Western blot analysis; format: cell-based
[8] = system: A549; experiment: Inhibition of Nrf2 5'-untranslated region guanine-rich DNA sequence in human A549 cells assessed as potentiation of etoposide-induced cytotoxicity by measuring decrease in cell viability at 10 nM after 24 hrs by MTT assay; format: cell-based
[9] = Stabilization of ssGQPLEX DNA (unknown origin) assessed as increase in the peak of 264 nm wavelength by circular dichroism method
[10] = system: A549; experiment: Inhibition of Nrf2 5'-untranslated region guanine-rich DNA sequence in human A549 cells assessed as potentiation of etoposide-induced apoptosis by measuring increase cleaved PARP protein level in at 10 nM after 24 hrs by Western blot analysis; format: cell-based
[11] = system: A549; experiment: Inhibition of Nuclear factor erythroid 2-related factor 2 5'-untranslated region guanine-rich DNA sequence in human A549 cells assessed as suppression of AKR1B10 gene expression at 10 nM measured up to 48 hrs by RT-PCR analysis; format: cell-based
[12] = Binding affinity to ssGQPLEX DNA (unknown origin) assessed as dissociation constant by isothermal titration calorimetric method
[13] = system: A549; experiment: Inhibition of Nuclear factor erythroid 2-related factor 2 5'-untranslated region guanine-rich DNA sequence in human A549 cells assessed as reduction in NRF2 mRNA levels at 10 nM after 12 to 36 hrs by RT-PCR analysis; format: cell-based
[14] = Stabilization of ssGQPLEX-delta1,2 DNA lacking first and second G blocks (unknown origin) by circular dichroism method
[15] = system: A549; experiment: Inhibition of Nrf2 5'-untranslated region guanine-rich DNA sequence in human A549 cells assessed as potentiation of etoposide-induced cytotoxicity by measuring increase in apoptosis at 10 nM after 24 hrs by TUNEL assay; format: cell-based
[16] = system: A549; experiment: Cytotoxicity against human A549 cells at 1 nM to 10 uM after 24 hrs by MTT assay; format: cell-based; conditions: a549, 24 h, 0.001 µM
[17] = system: A549; experiment: Inhibition of Nuclear factor erythroid 2-related factor 2 5'-untranslated region guanine-rich DNA sequence in human A549 cells assessed as suppression of AKR1C3 gene expression at 10 nM measured up to 48 hrs by RT-PCR analysis; format: cell-based
[18] = Stabilization of dsGQPLEX DNA (unknown origin) by circular dichroism method
[19] = Stabilization of ssGQPLEX-G/T-1,2,3,4 DNA by circular dichroism method

COC(=O)C[C@](O)(CCCC(C)(C)O)C(=O)O[C@@H]1C(OC)=C[C@]23CCCN2CCc2cc4c(cc2[C@H]13)OCO4 [OMACETAXINE MEPESUCCINATE]
inhibition [1]: Active
inhibition [2]: Active
Activity [3]: inactive
Activity [4]: inactive
inhibition [5]: Active
Activity [6]: inactive
inhibition [7]: Active
inhibition [8]: Active
Activity [9]: Active
inhibition [10]: Active
inhibition [11]: Active
Kd [12]: 17 µM
inhibition [13]: Active
Activity [14]: inactive
inhibition [15]: Active
Activity [16]: Non-Toxic
inhibition [17]: Active
Activity [18]: inactive
Activity [19]: inactive

Source: ChEMBL document CHEMBL4433256, “Homoharringtonine stabilizes secondary structure of guanine-rich sequence existing in the 5'-untranslated region of Nrf2” (Bioorg Med Chem Lett, 2019)
